Experiments:
[1] = tested on: oct4; assay: RT-qPCR of oct4 RNA in AGS cells; type: cell-based, human; conditions: 10 μM, 4 days, FIG. 2
Experimental: (§1) Approximately 2.5×10^5 AGS cells were treated for 4 days with DMSO alone (no drug treatment) or 10 μM compound I-1 in DMSO. Cells were lysed and RNA was extracted using Zymo's Quick RNA-Microprep following manufacturer instructions. 100 ng of RNA were reverse transcribed using MuLV reverse transcriptase (New England Biolabs, USA). qPCR was performed using 2 ul of cDNA and Luna Universal qPCR Master Mix from NEB in a Stratagene Mx3005P.
AGS gastric cancer cells were treated with either DMSO alone (no drug treatment) or compound I-1 at […] for 4 days. RNA was isolated and oct4 RNA levels were measured by RT-qPCR.

[2] = tested on: nanog; assay: RT-qPCR of nanog RNA in AGS cells; type: cell-based, human; conditions: 10 μM, 4 days, FIG. 3
Experimental: as §1
AGS gastric cancer cells were treated with either DMSO alone (no drug treatment) or 10 µM of compound I-1 for 4 days. RNA was isolated and nanog RNA levels were measured by RT-qPCR.

[3] = tested on: Primary CD-1 mouse hepatocytes; assay: Hepatocyte toxicity assay (CellTiter Glo); type: cell-based; conditions: 10 μM daily for 4 days, FIG. 4
Experimental: Fresh Primary CD-1 mouse hepatocytes were obtained from XenoTech in 96-well plates the day after perfusion. After 24 hrs of recovery at 37° C. using OptiCulture Hepatocyte Media, medium was replaced containing either DMSO alone (no drug treatment) or 10 μM of compound I-1 daily for 4 days. Cell viability was measured using CellTiter Glo 2.0 Kit from PROMEGA, following manufacturer instructions. Luminescence was measured using a SynergyHTX plate reader with a 1 sec integration.
Normal, healthy mouse hepatocytes were treated with DMSO alone (no drug treatment) or 10 µM of compound I-1 for 4 days. Cell health was measured using CELLTITER GLO reagent, which provided a luminescence readout as a measurement of total ATP concentration.

[4] = tested on: AGS cells; assay: Kinetic cell viability with AGS cells (RealTime Glo MT); type: cell-based, human
Experimental: Approximately 50,000 AGS cells were seeded per well of a 96-well plate in media containing NanoLuc Luciferase and MT Cell Viability Substrate provided on the RealTime Glo MT Cell Viability Assay Kit from PROMEGA. Four hours after plating, cells were treated with DMSO alone (no drug treatment) or decreasing concentrations of a compound of the disclosure to achieve final concentrations of 20, 10, 5, and 2.5 μM. Luminescence Units (RLU) were measured every 16-20 hours using a SynergyHTX plate reader with a 30 msec integration (see FIG. 1).
Approximately 50,000 AGS cells were seeded per well of a 96-well plate in media containing NanoLuc Luciferase and MT Cell Viability Substrate provided on the RealTime Glo MT Cell Viability Assay Kit from PROMEGA. Four hours after plating, cells were treated with DMSO alone (no drug treatment) or decreasing concentrations of compound I-1 to achieve final concentrations of 20, 10, 5, and 2.5 μM. Luminescence Units (RLU) were measured every 16-20 hrs using a SynergyHTX plate reader with a 30 msec integration.
AGS gastric cancer cells were treated with either DMSO alone (no drug treatment) or various concentrations of compound I-1 (including 2.5 µM, 5 µM, 10 µM, and 20 µM) for 4 days. Cell health and replication were measured using REALTIME-GLO MT Cell Viability Assay, which provided a luminescence readout as a measurement of cell number and health.

[5] = tested on: HepG2; assay: Growth inhibition of additional cancer cell lines; type: cell-based; conditions: Homo sapiens; HepG2, Liver; 50% inhibition of growth
Source text: (§2) We tested the ability of compound I-1 to inhibit the growth of 11 additional cell lines, derived from a variety of different types of human cancer.

[6] = tested on: MM.1R; assay: Growth inhibition of additional cancer cell lines; type: cell-based; conditions: Homo sapiens, Hematopoietic-B-cell myeloma, 50% inhibition of growth
Source text: as §2

[7] = tested on: NALM-6; assay: Growth inhibition of additional cancer cell lines; type: cell-based; conditions: Homo sapiens; NALM-6, Heme (B-cell precursor leukemia, ALL); 50% inhibition of growth
Source text: as §2

[8] = tested on: NCI-H520; assay: Growth inhibition of additional cancer cell lines; type: cell-based; conditions: Homo sapiens; NCI-H520, NSCLC; 50% inhibition of growth
Source text: as §2

[9] = tested on: RL95-2; assay: Growth inhibition of additional cancer cell lines; type: cell-based; conditions: Homo sapiens; RL95-2, Uterus/endometrium; 50% inhibition of growth
Source text: as §2

[10] = tested on: Raji; assay: Growth inhibition of additional cancer cell lines; type: cell-based; conditions: Homo sapiens, Heme (Burkitt's lymphoma), 50% inhibition of growth
Source text: as §2

[11] = tested on: Ramos (RA 1); assay: Growth inhibition of additional cancer cell lines; type: cell-based; conditions: Homo sapiens, Hematopoietic-Burkitt's B-cell lymphoma, 50% inhibition of growth
Source text: as §2

[12] = tested on: SR; assay: Growth inhibition of additional cancer cell lines; type: cell-based; conditions: Homo sapiens, Heme (large cell immunoblastic lymphoma-unknown B or T cell origin), 50% inhibition of growth
Source text: as §2

[13] = tested on: SU-DHL-10; assay: Growth inhibition of additional cancer cell lines; type: cell-based; conditions: Homo sapiens, SU-DHL10; SU-DHL-10, Hematopoietic-large B-cell lymphoma; 50% inhibition of growth
Source text: as §2

[14] = tested on: SW620; assay: Growth inhibition of additional cancer cell lines; type: cell-based; conditions: Homo sapiens, SW-620; SW620, Colon; 50% inhibition of growth
Source text: as §2

[15] = tested on: Thp1; assay: Growth inhibition of additional cancer cell lines; type: cell-based; conditions: Homo sapiens, THP-1; Thp1, Heme (acute monocytic leukemia); 50% inhibition of growth
Source text: as §2

Question: What does the source list for `CCC(=O)N1CCc2cc(-c3ccc(C(=O)NCc4cccnc4)cc3)ccc21` [Compound I-1]?
Answer: oct4 expression in gastric cancer cells [1]: decreased; nanog expression in gastric cancer cells [2]: decreased; toxicity to healthy hepatocytes [3]: no toxicity; growth of gastric cancer cells ([4]; AGS cells, 2.5-20 μM, 4 days, FIG. 5): inhibited growth; populations of embryonic-like gastric cell populations in gastric cancer ([4]; AGS cells, 20, 10, 5 and 2.5 μM, FIG. 1): depleted; IC50 [5]: 4020 nM; IC50 [6]: 5440 nM; IC50 [7]: 675 nM; IC50 [8]: 3660 nM; IC50 [9]: 2500 nM; IC50 [10]: 2520 nM; IC50 [11]: 3410 nM; IC50 [12]: 489 nM; IC50 [13]: 2610 nM; IC50 [14]: 2790 nM; IC50 [15]: 5170 nM

Reference: patent US12522587B2, “Cancer treatments targeting cancer stem cells” (Remedy Plan, Inc., priority 2018, dated 2026)
